# In patent US20190106460A1, “BINDING INHIBITORS OF THE BETA. TRANSDUCIN REPEAT-CONTAINING PROTEIN” (priority 2011, published 2019):
# Read-outs that look alike come from different tables or passages of the source. Starred links: 1 amine or outer side, 2 acyl side, 3 side chain; linkers in the order of their positions; H or OH if unused. Non-standard residues stand in square brackets, D forms with d. Residues, ends and D or L forms follow the SMILES beside them. Phe(4-NO2) = N[C@@H](Cc1ccc([N+](=O)[O-])cc1)C(=O)O; Phe(3-F) = N[C@@H](Cc1cccc(F)c1)C(=O)O; Phe(4-F) = N[C@@H](Cc1ccc(F)cc1)C(=O)O; 1Nal = N[C@@H](Cc1cccc2ccccc12)C(=O)O; Phe(2-F) = N[C@@H](Cc1ccccc1F)C(=O)O; pS = N[C@@H](COP(=O)(O)O)C(=O)O; Suc = O=C(CCC(=O)[*:2])[*:1]
# How the values were obtained:
# β-TrCP1/Skp1 = β-TrCP1/Skp1 (Homo sapiens, UniProt Q9Y297); assay: βTrCP ubiquitination assay (Ub assay); type: biochemical; conditions: for Ub Assay 10 μM: 10 μM compound; for Ub Assay 100 μM: 100 μM compound
# Summary of the method: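 Compounds tested in duplicate at 10 and 100 μM in βTrCP(IκBα) and βTrCP(β-catenin) cascades with UBE1 E1, UbcH3 E2 and biotinylated ubiquitin; substrate phosphorylation done without compound, ubiquitination steps with compound. Product captured on anti-c-Myc plates and detected with SA-Ru TAG by MSD electrochemiluminescence.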
# βTrCP [1] = biological target: T1, βTrCP (Homo sapiens, UniProt Q9Y297); assay: Biotin pull down assay with biotinylated IκB peptide; type: binding; conditions: for Biotin Pulldown Assay 10 μM: 10 μM compound; for Biotin Pulldown Assay 100 μM: 100 μM compound
# T1 sequence (Q9Y297 1-605): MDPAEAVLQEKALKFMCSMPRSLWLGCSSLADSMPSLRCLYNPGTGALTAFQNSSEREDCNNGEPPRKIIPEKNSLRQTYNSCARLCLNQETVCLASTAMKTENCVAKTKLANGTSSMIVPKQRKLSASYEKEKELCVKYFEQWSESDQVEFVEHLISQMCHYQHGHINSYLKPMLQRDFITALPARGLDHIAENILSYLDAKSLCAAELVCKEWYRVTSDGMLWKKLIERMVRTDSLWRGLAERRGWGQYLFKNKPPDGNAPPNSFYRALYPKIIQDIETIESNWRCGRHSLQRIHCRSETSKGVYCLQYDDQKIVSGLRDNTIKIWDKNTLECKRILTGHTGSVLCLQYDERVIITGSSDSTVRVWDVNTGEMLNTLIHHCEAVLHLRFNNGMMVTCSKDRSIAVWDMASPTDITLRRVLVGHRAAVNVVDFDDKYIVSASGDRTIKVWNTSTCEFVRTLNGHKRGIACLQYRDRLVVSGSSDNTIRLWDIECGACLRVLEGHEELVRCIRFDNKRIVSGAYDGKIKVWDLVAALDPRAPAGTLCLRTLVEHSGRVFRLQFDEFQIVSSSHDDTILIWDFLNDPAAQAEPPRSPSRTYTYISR
# βTrCP/Skp1 = βTrCP/Skp1 (Homo sapiens, UniProt Q9Y297); assay: Surface plasmon resonance (SPR), Biacore T200; type: binding; conditions: apparent KD averaged over both surfaces
# Procedure: Surface Plasmon Resonance (SPR)
# Experiments were carried out using the Biacore T200 SPR detection system. This system exploits the phenomenon of surface plasmon resonance (SPR) to monitor interactions between molecules. The system involves the attachment of one interacting partner to a surface (an appropriate sensor chip) while the other interacting partner is passed over it in solution. The binding of molecules to the surface generates an SPR response (measured in response units (RU)) that is proportional to the mass and amount of the biomolecule (in this case βTrCP/Skp1) bound to the chip. The relative responses obtained are dependent on the concentration of the molecule binding. At RUmaximum, the attached protein's binding sites are saturated. Binding events can be followed in real time and a range of interaction characteristics can be determined including kinetics, specificity of interactions and the concentration of specific molecules in a sample.
# As βTrCP was His tagged, an NTA sensor chip was used. This sensor chip has a dextran surface matrix with immobilized nitrilotriacetic acid (NTA) which provides a means of capturing polyHis-tagged proteins through Nickel chelation. It was hoped that addition of Ni^+ would orient the protein in a specific (and hopefully active) manner as it is covalently immobilised via amine coupling. Addition of EDC:NHS (N-ethyl-N′-(3-[…])-carbodiimide:N-hydroxysuccinimide) converts carboxyl groups on the dextran sensor chip surface to succinamide esters which readily form covalent bonds with primary amines. Each chip contains four flow cells (each a separate surface) which means that compounds/peptides can be passed over different forms of βTrCP and a reference surface simultaneously. If binding to βTrCP is occurring, responses should be the same (accounting for differences in density of surface etc) on each surface.
# Two different βTrCP protein complexes were immobilised on to an NTA biacore sensor chip. One included the GSTSkp1 fusion (HisβTrCP/GSTSkp1) while the other was immobilised after GST Removal by Thrombin (HisβTrCP/Skp1). To ensure that the GST moiety is completely removed from Skp1, βTrCP/GSTSkp1 was incubated with thrombin ((10units/mg protein) for at least 16 hours at room temperature in 10mMHEPES 150mMNaCl pH7.4+2 mM CaCl2. Thrombin and GST were removed from βTrCP/Skp1 by buffer exchange through a 50 KDa MWCO vivaspin concentrator.
# Protein Immobilisation Procedure for NTA Chip
# Ni+ (500 μM NiCl) loaded on to surface at a flow rate of 5 μl/min for 60s. EDC/NHS (activates dextran carboxylates) loaded at a flow rate of 5 μl/min for 240s. Protein ([protein]=100 nM to 1 μM) loaded at a flow rate of 10 μl/min for 180s. Strip solution (350 μM EDTA/1M NaCl) added at flow rate of 10 μl/min for 30s (to chelate excess Ni+ and remove non-covalently bound protein e.g. protein oligomers). Quench solution (ethanolamine) at flow rate of 5 μl/min for 240s (to deactivate surface molecules on the chip that have not crosslinked protein). The immobilisation buffer used was 10 mM HEPES pH 7.4, 150 mM NaCl,
# GST Capture Procedure (for Immobilisation Via GSTSkp1)
# EDC:NHS was injected at 5 μl/min for 4 min to activate surface for amine coupling (this converts carboxyl groups on the surface of the chip to succinamide esters that react with primary amines)
# Anti-GST (60 μg/ml). was loaded at 10 μl/min for 4 min resulting in an increase in response units of 6730 (Biacore manual states it should result in ˜7000)
# Ethanolamine was injected at 5 μl/min for 5 min to deactivate remaining unreacted esters at surface (quenching).
# Injection of a low concentration of purified GST (from kit) was injected for 3 mins at 5 μl/min before running a regeneration cycle with glycine pH2.0 that disrupts the antibody-GST interaction. […]
# FBW7/Skp1 = FBW7/Skp1 (Homo sapiens, UniProt Q969H0); assay: Selectivity assay vs other E3s: Fbw7; type: biochemical; conditions: for inhibition at 100 µM: value in brackets, read-out: % Inhibition Fbw7 @ (100 μM); for inhibition at 10 µM: read-out: % Inhibition Fbw7 @ 10 μM
# Summary of the method: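 FBW7/Skp1 E3 ubiquitination of cyclin E substrate in 50 mM HEPES pH 7.5, 75 mM NaCl, 1 mM DTT; preincubated 30 min at room temperature before Mg/ATP, then 60 min more. Products resolved by 10% SDS-PAGE and immunoblotted with anti-cyclin E.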
# Skp2 = Skp2 (Homo sapiens, UniProt Q13309); assay: Selectivity assay vs other E3s: Skp2; type: biochemical; conditions: for inhibition at 100 µM: value in brackets, read-out: % Inhibition Skp2 @ (100 μM); for inhibition at 10 µM: read-out: % Inhibition Skp2 @ 10 μM
# Summary of the method: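 Skp2 ubiquitination was measured in master mixes of 50 mM Herpes buffer, pH 7.5, with 75 mM NaCl and 1 mM DTT, lacking Mg or ATP. Test compounds were preincubated for 30 minutes at room temperature, Mg/ATP was added for a further 60 minutes, and reactions were boiled in SDS loading buffer, resolved on 10% SDS-PAGE, blotted to nitrocellulose and probed with HRP-Streptavidin.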
# βTrCP [2] = biological target: βTrCP (Homo sapiens, UniProt Q9Y297); assay: Fluorescence polarisation (FP) binding assay with fluorescein-tagged IκB peptide
# Target sequence in this assay (P63208 whole entry partner, one chain of several): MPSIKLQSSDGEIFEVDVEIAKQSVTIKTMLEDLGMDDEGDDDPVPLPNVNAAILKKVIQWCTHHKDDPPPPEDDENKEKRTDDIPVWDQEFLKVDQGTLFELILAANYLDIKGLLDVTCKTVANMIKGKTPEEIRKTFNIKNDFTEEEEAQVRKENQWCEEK
# [3] = Table 11, with spread, read-out: FP IC50/μM
# [4] = Tables 1, 3, 7, 8, 10 nM fluorescein-tagged IκB peptide, read-out: FP Assay IC50/μM
# Chain of FBW7/Skp1 (Q969H0 whole entry, species assumed): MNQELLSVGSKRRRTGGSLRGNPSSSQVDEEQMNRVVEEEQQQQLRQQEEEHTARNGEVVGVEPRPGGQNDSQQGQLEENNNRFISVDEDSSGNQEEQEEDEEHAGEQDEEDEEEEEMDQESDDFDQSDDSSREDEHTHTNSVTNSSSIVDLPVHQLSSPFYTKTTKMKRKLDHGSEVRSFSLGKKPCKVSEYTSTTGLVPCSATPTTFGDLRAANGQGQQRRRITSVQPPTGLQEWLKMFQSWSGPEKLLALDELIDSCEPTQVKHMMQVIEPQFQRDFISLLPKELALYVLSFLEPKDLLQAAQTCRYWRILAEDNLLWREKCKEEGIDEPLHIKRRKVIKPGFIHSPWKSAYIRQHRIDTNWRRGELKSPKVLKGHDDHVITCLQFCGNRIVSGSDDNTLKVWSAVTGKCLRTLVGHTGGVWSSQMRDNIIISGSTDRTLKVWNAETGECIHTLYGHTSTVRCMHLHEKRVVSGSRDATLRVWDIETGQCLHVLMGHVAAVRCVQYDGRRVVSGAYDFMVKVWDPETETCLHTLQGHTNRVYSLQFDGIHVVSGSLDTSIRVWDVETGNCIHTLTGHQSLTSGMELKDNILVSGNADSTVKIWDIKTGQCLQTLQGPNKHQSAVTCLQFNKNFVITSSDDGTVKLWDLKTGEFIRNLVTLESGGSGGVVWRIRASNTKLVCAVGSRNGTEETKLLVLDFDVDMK
# Chain of FBW7/Skp1 (P63208 whole entry partner, species assumed): as the sequence (P63208 whole entry partner, one chain of several) above
# Chain of FBW7/Skp1 (Q13616 whole entry partner, species assumed): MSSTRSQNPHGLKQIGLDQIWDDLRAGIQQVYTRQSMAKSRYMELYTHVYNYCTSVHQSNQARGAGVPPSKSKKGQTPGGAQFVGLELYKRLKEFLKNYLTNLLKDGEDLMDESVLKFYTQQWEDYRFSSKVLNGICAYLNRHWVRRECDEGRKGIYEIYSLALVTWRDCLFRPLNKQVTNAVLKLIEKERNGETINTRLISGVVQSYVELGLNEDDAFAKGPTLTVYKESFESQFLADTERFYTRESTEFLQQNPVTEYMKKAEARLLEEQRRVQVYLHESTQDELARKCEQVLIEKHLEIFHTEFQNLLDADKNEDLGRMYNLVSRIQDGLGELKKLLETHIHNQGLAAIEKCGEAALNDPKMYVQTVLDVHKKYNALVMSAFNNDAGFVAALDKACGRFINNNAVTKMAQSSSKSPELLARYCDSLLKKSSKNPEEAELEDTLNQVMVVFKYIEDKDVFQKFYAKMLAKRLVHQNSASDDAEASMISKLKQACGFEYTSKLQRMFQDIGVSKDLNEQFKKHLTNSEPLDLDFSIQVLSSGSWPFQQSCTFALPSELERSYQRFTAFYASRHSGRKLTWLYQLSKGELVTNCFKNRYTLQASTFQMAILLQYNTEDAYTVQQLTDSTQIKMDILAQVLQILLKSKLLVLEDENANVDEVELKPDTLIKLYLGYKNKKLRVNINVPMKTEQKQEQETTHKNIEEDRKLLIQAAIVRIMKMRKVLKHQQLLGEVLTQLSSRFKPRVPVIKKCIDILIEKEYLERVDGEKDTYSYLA
# Chain of FBW7/Skp1 (P62877 whole entry partner, species assumed): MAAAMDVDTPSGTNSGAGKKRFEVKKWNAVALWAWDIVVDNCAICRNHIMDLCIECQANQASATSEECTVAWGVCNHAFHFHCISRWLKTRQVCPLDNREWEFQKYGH
# Chain of Skp2 (Q13309 whole entry, species assumed): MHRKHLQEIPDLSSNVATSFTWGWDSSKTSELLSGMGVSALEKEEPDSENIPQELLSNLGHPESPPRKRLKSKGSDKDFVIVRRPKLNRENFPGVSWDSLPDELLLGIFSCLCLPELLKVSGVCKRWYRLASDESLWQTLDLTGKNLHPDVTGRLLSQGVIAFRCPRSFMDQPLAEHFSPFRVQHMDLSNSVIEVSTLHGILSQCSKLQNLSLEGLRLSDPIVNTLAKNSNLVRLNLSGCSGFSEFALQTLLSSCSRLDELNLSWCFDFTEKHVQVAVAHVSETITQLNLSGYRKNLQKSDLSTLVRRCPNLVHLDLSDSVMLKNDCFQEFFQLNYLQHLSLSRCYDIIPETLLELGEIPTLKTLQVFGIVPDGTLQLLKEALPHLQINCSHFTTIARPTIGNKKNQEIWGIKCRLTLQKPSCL
# Chain of Skp2 (P63208 whole entry partner, species assumed): as the sequence (P63208 whole entry partner, one chain of several) above
# Chain of Skp2 (Q13616 whole entry partner, species assumed): as the sequence (Q13616 whole entry partner, species assumed) above
# Chain of Skp2 (P62877 whole entry partner, species assumed): as the sequence (P62877 whole entry partner, species assumed) above
# Chain of βTrCP/Skp1 (P63208 whole entry partner, one chain of several): as the sequence (P63208 whole entry partner, one chain of several) above
# Chain of β-TrCP1/Skp1 (P63208 2-163 partner limits assumed, one chain of several): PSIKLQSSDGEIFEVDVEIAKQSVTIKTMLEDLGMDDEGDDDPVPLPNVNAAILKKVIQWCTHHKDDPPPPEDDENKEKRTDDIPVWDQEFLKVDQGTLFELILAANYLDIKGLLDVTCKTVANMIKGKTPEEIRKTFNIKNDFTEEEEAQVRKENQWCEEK
SMILES,Ub Assay 10 μM (β-TrCP1/Skp1),Ub Assay 100 μM (β-TrCP1/Skp1),Biotin Pulldown Assay 10 μM (βTrCP [1]),Biotin Pulldown Assay 100 μM (βTrCP [1]),Kd (βTrCP/Skp1) [µM],inhibition at 100 µM (FBW7/Skp1) [%],inhibition at 10 µM (FBW7/Skp1) [%],inhibition at 100 µM (Skp2) [%],inhibition at 10 µM (Skp2) [%],IC50 (βTrCP [2]; [3]) [µM],IC50 (βTrCP [2]; [4]) [µM]
"CC[C@H](C)[C@H](NC(=O)CNC(=O)[C@H](COP(=O)(O)O)NC(=O)[C@@H](N)CC(=O)O)C(=O)N[C@@H](Cc1ccccc1)C(=O)N[C@@H](CCC(=O)O)C(N)=O [UBP001, DpSGIFE-NH2] (H-D[pS]GIFE-NH2)",reduces/,inhibits,reduces/,inhibits,1.48 ± 0.286,0,0,13,8,1.24 ± 0.145,–
"COc1ccc(C[C@H](NC(=O)[C@H](Cc2ccccc2F)NC(=O)CNC(=O)[C@H](CCC(=O)O)NC(=O)CCC(=O)O)C(=O)N[C@@H](CCC(=O)O)C(N)=O)cc1 [UBP006, Suc-EGF(2F)Y(Me)E-NH2] (Suc-EG[Phe(2-F)]Y(Me)E-NH2)",no effect/,inhibits,no effect/,reduces,4.4 ± 0.82,4,0,4,0,3.28 ± 0.5,3.2
"NC(=O)[C@H](CCC(=O)O)NC(=O)[C@H](Cc1cccc2ccccc12)NC(=O)[C@H](Cc1ccc(O)cc1)NC(=O)CNC(=O)[C@H](CCC(=O)O)NC(=O)CCC(=O)O [UBP009, Suc-EGY1NalE-NH2] (Suc-EGY[1Nal]E-NH2)",reduces/,inhibits,no effect/,inhibits,1.49 ± 0.625,5,1,6,0,1.15 ± 0.222,1.15
"NC(=O)[C@H](CCC(=O)O)NC(=O)[C@H](Cc1ccc([N+](=O)[O-])cc1)NC(=O)[C@H](Cc1cccc(F)c1)NC(=O)CNC(=O)[C@H](CCC(=O)O)NC(=O)CCC(=O)O [UBP004, Suc-EGF(3F)F(4NO2)E-NH2] (Suc-EG[Phe(3-F)][Phe(4-NO2)]E-NH2)",inhibits/,inhibits,reduces/,inhibits,4.53 ± 0.681,2,0,3,0,0.522 ± 0.049,–
"NC(=O)[C@H](CCC(=O)O)NC(=O)[C@H](Cc1cccc2ccccc12)NC(=O)[C@H](Cc1ccc([N+](=O)[O-])cc1)NC(=O)CNC(=O)[C@H](CCC(=O)O)NC(=O)CCC(=O)O [UBP011, Suc-EGF(4NO2)1NalE-NH2] (Suc-EG[Phe(4-NO2)][1Nal]E-NH2)",reduces/,inhibits,reduces/,inhibits,1.96 ± 0.635,28,14,6,12,1.31 ± 0.198,–
"NC(=O)[C@H](CCC(=O)O)NC(=O)[C@H](Cc1cccc2ccccc12)NC(=O)[C@H](Cc1cccc(F)c1)NC(=O)CNC(=O)[C@H](CCC(=O)O)NC(=O)CCC(=O)O [UBP010, Suc-EGF(3F)1NalE-NH2] (Suc-EG[Phe(3-F)][1Nal]E-NH2)",inhibits/,inhibits,inhibits/,inhibits,0.32 ± 0.24,0,3,12,0,0.157 ± 0.037,0.157
"NC(=O)[C@H](CCC(=O)O)NC(=O)[C@H](Cc1c[nH]c2ccccc12)NC(=O)[C@H](Cc1cccc(F)c1)NC(=O)CNC(=O)[C@H](CCC(=O)O)NC(=O)CCC(=O)O [UBP014, Suc-EGF(3F)WE-NH2] (Suc-EG[Phe(3-F)]WE-NH2)",reduces/,inhibits,reduces/,inhibits,0.455 ± 0.03,0,0,6,5,0.095 ± 0.009,0.095
"NC(=O)[C@H](CCC(=O)O)NC(=O)[C@H](Cc1ccc([N+](=O)[O-])cc1)NC(=O)[C@H](Cc1ccc(F)cc1)NC(=O)CNC(=O)[C@H](CCC(=O)O)NC(=O)CCC(=O)O [UBP005, Suc-EGF(4F)F(4NO2)E-NH2] (Suc-EG[Phe(4-F)][Phe(4-NO2)]E-NH2)",reduces/,inhibits,no effect/,inhibits,0.507 ± 0.267,0,0,0,0,1.21 ± 0.093,–
